Tested on: neonatal human epidermal keratinocytes (HEKn)
Test: Intracellular ROS by fluorescence microscopy in keratinocytes exposed to urban dust, with niacinamide and/or FSO (Example 2)
Assay type: cell-based
Conditions: HEKn cells, 200 μg/mL UD, about one hour exposure; niacinamide/FSO concentration per sample
Description: An in vitro study was conducted to analyze the skin protecting benefits of varying concentrations of niacinamide and/or FSO. Particularly, an in vitro study was conducted to analyze the efficacy of varying concentrations of niacinamide and/or FSO in reducing and/or preventing ROS in and on the skin.
To conduct the study, neonatal human epidermal keratinocytes (HEKn) were grown in standard well plates having glass bottoms coated with collagen I. The HEKn were cultured in EpiLife™ media supplemented with human keratinocyte growth supplements (HKGS), both of which are commercially available from ThermoFisher Scientific of Waltham, MA. Stock solutions of FSO, niacinamide, and urban dust (UD) were prepared for the treatment of the keratinocytes. It should be appreciated that the UD is representative of particulate matter (PM) pollution.
The presence or amount of intracellular reactive oxygen species (ROS) was measured using fluorescence microscopy. […] After exposure to the oxidative stress detection reagent and the FSO, niacinamide, and/or UD, the keratinocytes were washed twice with a wash buffer and imaged via fluorescence in the wash buffer. Live adherent cells were imaged using GFP excitation/emission filters, and the ROS levels were quantified from raw images using ImageJ software.

| Compound | ROS Levels (%) Relative to UD Alone [%] |
| --- | --- |
| NC(=O)c1cccnc1 [Sample 13, niacinamide] | −10.79 |
| NC(=O)c1cccnc1 [Sample 14, niacinamide] | −3.89 |

Reference: patent publication US20260199214A1, “Personal Care Compositions And Methods For The Same” (Colgate-Palmolive Company, priority 2019, published 2026)
